Like-named read-outs stand apart in the source and are kept apart here.

One assay concerns Z5B71 T cell clone. In words: T cell activation assay: stimulation of the Z5B71 T cell clone, IFN-γ ELISA. Format: cell-based, human. The settings on record: antigen-loaded APCs, 36 hr.
Assay [1] deals with CD1b-restricted T cell clones Z5B71, Z4B27, Z5B11. In words: DCs pulsed with heat-killed or infected with living M. tuberculosis, recognition by CD1b-restricted T cell clones. It is filed as cell-based, human. The method, then: Pulsing and infection of DCs with M. tuberculosis. M. tuberculosis was killed at 80° C. for 20 min and incubated in RPMI-1640 medium containing 10% FCS for 2 hours at 37° C. with DCs (3×10^4/well) before addition of T cells (10^5/well in triplicate). DCs were infected as previously described De Libero et al. (2005) Immunity 22, 763-72 and IFN-γ release was monitored by ELISA.

In assay [2] the test system is PBMCs with autologous DCs. It is filed as cell-based, human.
A further assay deals with T1, CD1b (Homo sapiens, UniProt P29016).
T1 construct: expressed in transfected cells; host or cells: THP-1 (human promyelocytic), BCMGS-Neo / -Hygro vectors, electroporation
T1 sequence (P61769 21-119): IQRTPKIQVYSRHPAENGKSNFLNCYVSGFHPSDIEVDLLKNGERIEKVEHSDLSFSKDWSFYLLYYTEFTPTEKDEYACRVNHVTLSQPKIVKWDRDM
T1 sequence (P29016 18-333): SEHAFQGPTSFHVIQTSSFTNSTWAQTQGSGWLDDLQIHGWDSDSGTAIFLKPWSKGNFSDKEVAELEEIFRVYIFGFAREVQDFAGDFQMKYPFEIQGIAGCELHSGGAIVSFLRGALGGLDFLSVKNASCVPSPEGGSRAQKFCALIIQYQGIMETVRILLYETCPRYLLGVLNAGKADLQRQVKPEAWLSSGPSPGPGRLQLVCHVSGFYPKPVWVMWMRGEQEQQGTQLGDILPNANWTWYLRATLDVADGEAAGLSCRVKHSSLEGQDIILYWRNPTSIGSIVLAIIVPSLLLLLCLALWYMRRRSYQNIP
Format: cell-based. The settings on record: Z5B71 clone.

Regarding “(R)-1-O-mycoloyl-glycerol (3-O-mycoloyl-sn-glycerol) [s(R)-GroMM]”, the “stimulation of the Z5B71 T cell clone (IFN-γ release)” value (“stimulation of the Z5B71 T cell clone” for short) with Z5B71 T cell clone is listed as “stimulated the Z5B71 T cells more efficiently than the s(S)-GroMM”.

As for “(S)-1-O-mycoloyl-glycerol (1-O-mycoloyl-sn-glycerol) [s(S)-GroMM]”, in the assay with Z5B71 T cell clone, the “stimulation of the Z5B71 T cell clone” value is “s(R)-GroMM stimulated the Z5B71 T cells more efficiently than the s(S)-GroMM”.

As for glycerol monomycolate [GroMM], the “immunogenicity when APCs infected with living M. tuberculosis (IFN-γ release by Z5B71)” value in assay [1] is “highly immunogenic”. In addition, the “stimulation of the Z5B71 T cell clone” value with Z5B71 T cell clone is “intermediate activity”. The “IFN-γ release after stimulation, mean average” value is 117 pg/mL in assay [2] and 73 pg/mL in assay [2] (10 μg/ml, 6 days). The “effect of blocking antibodies against type 1 CD1 molecules on induced IFN-γ secretion” value in assay [2] (PPD-positive healthy donors, CD1 blocking antibodies 10 μg/ml each) is “abrogated the reactivity”. Besides, the “IFN-γ release after stimulation” value in assay [2] (naïve, PPD-negative donors (n=10), 10 μg/ml, 6 days) is on record as “no response”; in assay [2] (tuberculosis patients (n=11), 10 μg/ml, 6 days) it was “no IFN-γ secretion above background levels”. In addition, the “T cell response with APCs expressing CD1b and CD1e versus only CD1b (IFN-γ release)” value on CD1b (THP-1-CD1b vs THP-1-CD1b-CD1e) was “very similar T cell response”. The “CD1 restriction: T cell stimulation with panel of CD1-transfected APCs (TNF-α release)” value on CD1b (THP-1 transfected with CD1A, CD1B or CD1C) was “Only CD1b-expressing cells were able to stimulate T cells”. The “CD1 restriction: inhibition of clone reactivity by anti-CD1 mAbs (TNF-α release)” value on CD1b (mAbs at 10 μg/ml, 30 min before T cells) was “only anti-CD1b mAbs were capable of inhibiting the reactivity of the clone”.

(Values after patent publication US20100255015A1 (priority 2007, published 2010).)
